# Results taken from US20210046061A1, “METHODS AND COMPOSITIONS FOR TREATING HERPESVIRUS INDUCED CONDITIONS” (TRUSTEES OF BOSTON UNIVERSITY, priority 2015, published 2021).
# Columns and labels:
# EBV = EBV viral load in patient with post-transplant EBV positive lymphoma; assay type: in vivo, human; settings: one patient; arginine butyrate and daily ganciclovir; after 3 weeks of treatment; before treatment (Week 1) 27,782
# Procedure: (§1) Levels were determined before treatment (week1) and after 3 weeks of treatment (week 3).
# CMV = CMV viral load in patient with post-transplant EBV positive lymphoma; assay type: in vivo, human; settings: one patient; arginine butyrate and daily ganciclovir; after 3 weeks of treatment; before treatment (Week 1) 12,300
# Procedure: as §1
# HHV-6 = HHV-6 viral load in patient with post-transplant EBV positive lymphoma; assay type: in vivo, human; settings: one patient; arginine butyrate and daily ganciclovir; after 3 weeks of treatment; before treatment (Week 1) 658,882
# Procedure: as §1
# [1] = system: relapsed or refractory EBV-positive lymphoid tumors; settings: arginine butyrate and GCV; of 15 patients; cited from earlier work
# [2] = system: viral TK (EBV thymidine kinase) transcript in P3HR1 cells; experiment: Thymidine kinase (TK) mRNA expression assay, quantitative real-time RT-PCR; assay type: cell-based, human; settings: 24 hrs exposure, mRNA by RT-PCR
# Procedure: (§2) To measure whether Chidamide could induce EBV associated transcripts, the induction of mRNA for the protein kinases TK (FIG. 1A) and BGLF4 (FIG. 1B) in EBV-positive lymphoma cell lines was measured after exposure to different concentrations of the short-chain fatty acid, sodium butyrate (NaB), or the benzamide, chidamide (chid), for 24 hrs. Transcripts were quantitated by quantitative real-time RT-PCR.
# (§3) The EBV-positive B lymphoma cell line P3HR1 was used in the study. The P3HR1 cell line was originally derived from Burkitt's lymphoma patient. EBV maintains a latent state of replication in this cell line. These cells were maintained in RPMI 1640 with 10% fetal bovine serum containing 100 U penicillin per ml and 100 μg streptomycin per ml.
# (§4) P3HR1 cells were seeded in 60 mm plates containing 3×10^6 cells in 3 ml of fresh growth media. Appropriate concentrations of HDAC inhibitors were added to the plate and cells were incubated in the presence of HDAC inhibitors for 6 h, 24 h, 48 h, or as needed. Cells were harvested by centrifugation and washed once in cold PBS. Total cellular RNA was then extracted. To measure the relative level of TK mRNA in various total RNA preparations, reverse transcription and quantitative PCR using real time PCR analysis were used. […] The relative level of TK expression in a sample was calculated following normalization of β-actin expression level.
# [3] = system: BGLF4 (EBV-PK) transcript in P3HR1 cells; experiment: Protein kinase (BGLF4) mRNA expression assay, quantitative real-time RT-PCR; assay type: cell-based, human; settings: 24 hrs exposure, mRNA by RT-PCR
# Procedure: as §2, §3, §4
# [4] = system: EBV-positive B lymphoma cell line P3HR1; experiment: Drug sensitivity assay: HDAC inhibitor plus ganciclovir, viable cell count by trypan blue; assay type: cell-based, human; settings: both combined with ganciclovir; living cells counted on day 6
# Procedure: To determine tumor cytotoxic activity of the combination of HDACi and GCV, EBV+ lymphoma cells were exposed to a range of concentrations of sodium butyrate or chidamide […] for 3 days and then to GCV alone for another 3 days (FIG. 1C). Efficacy of either sodium butyrate or chidamide in the combination treatment approach was then determined by enumerating living cells. A general experimental protocol is described below.
# as §3
# To test the sensitivity of EBV-positive lymphoma cells towards chidamide, P3HR1 cells were treated with chidamide in the presence of one anti-viral drug. At the end of the assay, the efficacy of chidamide was assessed by measuring the inhibition of cell growth compared to untreated cells.
# Healthy, actively-growing P3HR1 cells were harvested and resuspended in fresh growth media. Cells were seeded in wells. […] On day 6, cell morphology was observed under a microscope and viable cell counts in each individual well was determined by the trypan blue dye exclusion method using an automated cell counter (Countess, Invitrogen).
Compound,"EBV viral load, Week 3 (EBV)","CMV viral load, Week 3 (CMV)","HHV-6 viral load, Week 3 (HHV-6) [Copies per mL]",patients who achieved complete tumor remissions [1] [patients],patients who achieved partial tumor remissions [1] [patients],concentration at which induction of viral TK expression begins [2] [nM],concentration at which induction of BGLF4 expression begins [3] [nM],concentration of chidamide as good in killing as 1.0 mM sodium butyrate [4]
arginine butyrate,"1,486 Copies per mL","1,600 Copies per mL",805,4,6,,,
Nc1cc(F)ccc1NC(=O)c1ccc(CNC(=O)/C=C/c2cccnc2)cc1 [chidamide],,,,,,500,500,104
